Laboratory results taken from patent US10206937B2, “Boronic acid derivatives and therapeutic uses thereof” (Qpex Biopharma, Inc., priority 2014, dated 2019).
Converted amounts (≈) assume the structure as drawn. Where two headings read alike, the source gives them in different places.

Experiments:
ECM6704 (pUCP24) = test: microbe, parasite or virus in culture; type: cell-based, E. coli; settings: Escherichia coli, read-out: Imipenem MIC Alone
ECM6703 (pUCP24-NDM-1) = type: cell-based, E. coli
ECM6711 (pUCP24-VIM-1) = type: cell-based, E. coli
[1] = system: EC1064 (NDM-1, CMY-6, CTX-M-15); test: Carbapenem potentiation against clinical isolate (MIC); type: cell-based, Escherichia coli; settings: antibiotic alone
[2] = system: KP1081 (NDM-1, TEM-1, SHV-11, CMY-6, CTX-M-15); test: as above; type: cell-based; settings: antibiotic alone
AB1144 (NDM-1) = test: as above; type: cell-based, Acinetobacter baumannii
EA1019 (SHV-5, VIM-1) = test: as above; type: cell-based, Enterobacter aerogenes
KP1014 (VIM-1) = test: as above; type: cell-based, Klebsiella pneumoniae; settings: antibiotic alone
KP1054 (VIM-1, SHV-11) = test: as above; type: cell-based, Klebsiella pneumoniae; settings: antibiotic alone
[3] = system: KP1064 (KPC-2, SHV-11, TEM-1); test: as above; type: cell-based, Klebsiella pneumoniae; settings: antibiotic alone
[4] = system: KP1074 (KPC-3, SHV-11, TEM); test: as above; type: cell-based, Klebsiella pneumoniae; settings: antibiotic alone
[5] = system: KP1084 (KPC-3, SHV-11, TEM-1); test: as above; type: cell-based, Klebsiella pneumoniae; settings: antibiotic alone
[6] = system: KP1004 (KPC-2, TEM-1, SHV-11); test: as above; type: cell-based, Klebsiella pneumoniae; settings: antibiotic alone
[7] = system: KP1087 (KPC-2, CTX-M-15, SHV-11, TEM-1); test: as above; type: cell-based; settings: antibiotic alone
[8] = system: KP1086 (TEM, SHV, CTX-M-15, OXA-48); test: as above; type: cell-based, Klebsiella pneumoniae; settings: antibiotic alone
[9] = system: strains of Enterobacteriaceae overexpressing various carbapenemases (class A and B); test: organism not typed; type: cell-based
Excerpt: Several strains simultaneously expressing both class A and class B carbapenemases, which were constructed using conjugation, were also included in the panel.

Question: What does the source list for `C[C@@H](O)[C@H]1C(=O)N2C(C(=O)O)=C(SCCN=CN)C[C@H]12` [Imipenem]?
Answer: MIC (ECM6704 (pUCP24)): < 1 µg/mL; Imipenem MIC Alone (ECM6703 (pUCP24-NDM-1)): Y (key: X: MIC of less than 1.0 μg/mL; Y: MIC of 1.0 μ/mL or above); Imipenem MIC Alone (ECM6711 (pUCP24-VIM-1)): Y (key: X: MIC of less than 1.0 μg/mL; Y: MIC of 1.0 μ/mL or above); Carbapenem MIC Alone [1]: Z (MIC of greater than 10 μg/mL); Carbapenem MIC Alone [2]: Z (MIC of greater than 10 μg/mL); Carbapenem MIC Alone (AB1144 (NDM-1)): Z (key: X: MIC of less than 1 μg/mL; Y: MIC of 1 μg/mL to 10 μg/mL; Z: MIC of greater than 10 μg/mL); Carbapenem MIC Alone (EA1019 (SHV-5, VIM-1)): Z (key: X: MIC of less than 1 μg/mL; Y: MIC of 1 μg/mL to 10 μg/mL; Z: MIC of greater than 10 μg/mL); Carbapenem MIC Alone (KP1014 (VIM-1)): Z (MIC of greater than 10 μg/mL); Carbapenem MIC Alone (KP1054 (VIM-1, SHV-11)): Y (MIC of 1 μg/mL to 10 μg/mL); Carbapenem MIC Alone [3]: Z (MIC of greater than 10 μg/mL); Carbapenem MIC Alone [4]: Z (MIC of greater than 10 μg/mL); Carbapenem MIC Alone [5]: Z (MIC of greater than 10 μg/mL); Carbapenem MIC Alone [6]: Z (MIC of greater than 10 μg/mL); Carbapenem MIC Alone [7]: Y (MIC of 1 μg/mL to 10 μg/mL); Carbapenem MIC Alone [8]: Z (MIC of greater than 10 μg/mL); MIC [9]: 1 to 10 µg/mL (≈ 3.34 to 33.4 µM); MIC ([9]; Klebsiella aerogenes): > 10 µg/mL

Question: Which results are given for `C[C@@H](O)[C@H]1C(=O)N2C(C(=O)O)=C(S[C@@H]3CN[C@H](C(=O)N(C)C)C3)[C@H](C)[C@H]12` [Meropenem, reference compound]?
Answer: Carbapenem MIC Alone [1]: Z (MIC of greater than 10 μg/mL); Carbapenem MIC Alone [2]: Z (MIC of greater than 10 μg/mL); Carbapenem MIC Alone (AB1144 (NDM-1); AB1144, antibiotic alone): Z (MIC of greater than 10 μg/mL); Carbapenem MIC Alone (EA1019 (SHV-5, VIM-1); EA1019, antibiotic alone): Z (MIC of greater than 10 μg/mL); Carbapenem MIC Alone (KP1014 (VIM-1)): Y (MIC of 1 μg/mL to 10 μg/mL); Carbapenem MIC Alone (KP1054 (VIM-1, SHV-11)): Z (MIC of greater than 10 μg/mL); Carbapenem MIC Alone [3]: Z (MIC of greater than 10 μg/mL); Carbapenem MIC Alone [4]: Z (MIC of greater than 10 μg/mL); Carbapenem MIC Alone [5]: Z (MIC of greater than 10 μg/mL); Carbapenem MIC Alone [6]: Y (MIC of 1 μg/mL to 10 μg/mL); Carbapenem MIC Alone [7]: Z (MIC of greater than 10 μg/mL); Carbapenem MIC Alone [8]: Z (MIC of greater than 10 μg/mL); MIC ([9]; Enterobacter cloacae, strain ECL1026, Enterobacter cloacae (KPC), carbapenem alone or + Compound 14 at fixed 4 μg/ml, read-out: MIC): 1 to 10 µg/mL; MIC ([9]; Enterobacter cloacae, strain ECL1036, Enterobacter cloacae (KPC), carbapenem alone or + Compound 14 at fixed 4 μg/ml, read-out: MIC): 1 to 10 µg/mL; MIC ([9]; Enterobacter cloacae, strain ECL1045, Enterobacter cloacae (VIM-1), carbapenem alone or + Compound 14 at fixed 4 μg/ml, read-out: MIC): 1 to 10 µg/mL; MIC ([9]; Enterobacter cloacae, strain ECL1055, Enterobacter cloacae (KPC), carbapenem alone or + Compound 14 at fixed 4 μg/ml, read-out: MIC): 1 to 10 µg/mL; MIC ([9]; Enterobacter cloacae, strain ECL1057, Enterobacter cloacae (NDM-1, TEM-1, CTX-M-15), carbapenem alone or + Compound 14 at fixed 4 μg/ml, read-out: MIC): > 10 µg/mL; MIC ([9]; Enterobacter cloacae, strain ECL1082, Enterobacter cloacae (VIM-1), carbapenem alone or + Compound 14 at fixed 4 μg/ml, read-out: MIC): 1 to 10 µg/mL; MIC ([9]; Enterobacter cloacae, strain ECLM1013, Enterobacter cloacae (NDM, KPC), carbapenem alone or + Compound 14 at fixed 4 μg/ml, read-out: MIC): > 10 µg/mL; MIC ([9]; Enterobacter cloacae, strain ECLM1014, Enterobacter cloacae (NDM, KPC), carbapenem alone or + Compound 14 at fixed 4 μg/ml, read-out: MIC): > 10 µg/mL; MIC ([9]; Enterobacter cloacae, strain ECLM1015, Enterobacter cloacae (NDM, KPC), carbapenem alone or + Compound 14 at fixed 4 μg/ml, read-out: MIC): > 10 µg/mL; MIC ([9]; Enterobacter cloacae, strain ECLM1016, Enterobacter cloacae (NDM, KPC), carbapenem alone or + Compound 14 at fixed 4 μg/ml, read-out: MIC): > 10 µg/mL; MIC ([9]; Enterobacter cloacae, strain ECLM1017, Enterobacter cloacae (VIM, KPC), carbapenem alone or + Compound 14 at fixed 4 μg/ml, read-out: MIC): > 10 µg/mL; MIC ([9]; Enterobacter cloacae, strain ECLM1018, Enterobacter cloacae (VIM, KPC), carbapenem alone or + Compound 14 at fixed 4 μg/ml, read-out: MIC): > 10 µg/mL; MIC ([9]; Enterobacter cloacae, strain ECLM1019, Enterobacter cloacae (VIM, KPC), carbapenem alone or + Compound 14 at fixed 4 μg/ml, read-out: MIC): > 10 µg/mL; MIC ([9]; Escherichia coli, strain EC1064, Escherichia coli (NDM-1, CMY-6, CTX-M-15), carbapenem alone or + Compound 14 at fixed 4 μg/ml, read-out: MIC): > 10 µg/mL; MIC ([9]; Escherichia coli, strain EC1068, Escherichia coli (VIM-1), carbapenem alone or + Compound 14 at fixed 4 μg/ml, read-out: MIC): > 10 µg/mL; MIC ([9]; Klebsiella aerogenes, strain EA1019, Enterobacter aerogenes (SHV-5, VIM-1), carbapenem alone or + Compound 14 at fixed 4 μg/ml, read-out: MIC): > 10 µg/mL; MIC ([9]; Klebsiella pneumoniae, strain KP1004, Klebsiella pneumoniae (KPC TEM SHV), carbapenem alone or + Compound 14 at fixed 4 μg/ml, read-out: MIC): > 10 µg/mL; MIC ([9]; Klebsiella pneumoniae, strain KP1014, Klebsiella pneumoniae (Vim-1, TEM, SHV), carbapenem alone or + Compound 14 at fixed 4 μg/ml, read-out: MIC): > 10 µg/mL; MIC ([9]; Klebsiella pneumoniae, strain KP1061, Klebsiella pneumoniae (KPC TEM SHV), carbapenem alone or + Compound 14 at fixed 4 μg/ml, read-out: MIC): 1 to 10 µg/mL; MIC ([9]; Klebsiella pneumoniae, strain KP1064, Klebsiella pneumoniae (KPC TEM SHV), carbapenem alone or + Compound 14 at fixed 4 μg/ml, read-out: MIC): > 10 µg/mL; MIC ([9]; Klebsiella pneumoniae, strain KP1070, Klebsiella pneumoniae (KPC TEM SHV), carbapenem alone or + Compound 14 at fixed 4 μg/ml, read-out: MIC): > 10 µg/mL; MIC ([9]; Klebsiella pneumoniae, strain KP1084, Klebsiella pneumoniae (KPC-3, SHV-11, TEM-1), carbapenem alone or + Compound 14 at fixed 4 μg/ml, read-out: MIC): > 10 µg/mL; MIC ([9]; Klebsiella pneumoniae, strain KP1097, Klebsiella pneumoniae (IMP-1 SHV), carbapenem alone or + Compound 14 at fixed 4 μg/ml, read-out: MIC): > 10 µg/mL; MIC ([9]; Klebsiella pneumoniae, strain KP1098, Klebsiella pneumoniae (IMP-26 TEM SHV), carbapenem alone or + Compound 14 at fixed 4 μg/ml, read-out: MIC): > 10 µg/mL; MIC ([9]; Klebsiella pneumoniae, strain KPM1097, Klebsiella pneumoniae (NDM, KPC), carbapenem alone or + Compound 14 at fixed 4 μg/ml, read-out: MIC): > 10 µg/mL; MIC ([9]; Klebsiella pneumoniae, strain KPM1099, Klebsiella pneumoniae (NDM, KPC), carbapenem alone or + Compound 14 at fixed 4 μg/ml, read-out: MIC): > 10 µg/mL; MIC ([9]; Klebsiella pneumoniae, strain KPM1107, Klebsiella pneumoniae (NDM, KPC), carbapenem alone or + Compound 14 at fixed 4 μg/ml, read-out: MIC): > 10 µg/mL; MIC ([9]; Klebsiella pneumoniae, strain KPM1108, Klebsiella pneumoniae (NDM, KPC), carbapenem alone or + Compound 14 at fixed 4 μg/ml, read-out: MIC): > 10 µg/mL; MIC ([9]; Klebsiella pneumoniae, strain KPM1123, Klebsiella pneumoniae (KPC-2 TEM SHV), carbapenem alone or + Compound 14 at fixed 4 μg/ml, read-out: MIC): > 10 µg/mL; MIC ([9]; Klebsiella pneumoniae, strain KPM1344, Klebsiella pneumoniae (VIM-1), carbapenem alone or + Compound 14 at fixed 4 μg/ml, read-out: MIC): > 10 µg/mL; MIC ([9]; Klebsiella pneumoniae, strain KPM1346, Klebsiella pneumoniae (NDM-1 TEM SHV CTX-M-15 CMY), carbapenem alone or + Compound 14 at fixed 4 μg/ml, read-out: MIC): > 10 µg/mL; MIC ([9]; Klebsiella pneumoniae, strain KPM1347, Klebsiella pneumoniae (NDM-1 SHV CTX-M-15), carbapenem alone or + Compound 14 at fixed 4 μg/ml, read-out: MIC): > 10 µg/mL; MIC ([9]; strain EC1065, Escherichai coli (IMP-1 CMY-2), carbapenem alone or + Compound 14 at fixed 4 μg/ml, read-out: MIC): 1 to 10 µg/mL
